Source: patent US8409550B2, “Method for treating skin with retinoids and retinoid boosters” (Unilever Home & Personal Care, USA, Division of Conopco, …, priority 2000, dated 2013)
Values joined by “and” are separate entries in the source; they are usually repeats but may differ in a detail not shown here. Equal values may be shown once. Read-outs that look alike come from different tables or passages of the source. Blank lines part the entries; values can stand above or below the molecule they belong to.

What was measured:
[1] = system: transglutaminase (TGase I); test: Transglutaminase (Tgase) ELISA assay in cultured keratinocytes with retinol and boosters; assay type: cell-based, human; settings: for TG as % C, Compd 3: Compound 3 alone; for TG as % C, Compd 3 / TG as % C Compd 2 / TG as % C Compd 1: concentration one log below IC20; for IC20: IC20 (80% of control)
Retinal Reductase = test: Assay for retinal reductase activity, rat liver microsomes (to identify B3); assay type: biochemical; settings: test compound final 100 μM
[2] = system: cytochrome P450 dependent retinoic acid oxidation; test: Assay for NADPH dependent retinoic acid oxidation, rat liver microsomes (to identify B5); settings: for % Inhibition Retinoic Acid (10 μM): compound 10 μM; for % Inhibition Retinoic Acid (100 μM): compound 100 μM
LRAT = molecular target: T1, LRAT (Bos taurus, UniProt Q9BGL2); test: Assay for LRAT activity, bovine RPE microsomes (to identify B1); assay type: biochemical; settings: for % Inhibition LRAT (10 jm): compound 10 jm; for % Inhibition LRAT (100 jm): compound 100 jm
T1 construct: followed by approximately 15 μg of RPE microsomal protein; tissue W. L. Lawson Co., Lincoln, Nebr., USA (eyecups); host or cells: bovine retinal pigment epithelium microsomes
T1 sequence (Q9BGL2 1-230): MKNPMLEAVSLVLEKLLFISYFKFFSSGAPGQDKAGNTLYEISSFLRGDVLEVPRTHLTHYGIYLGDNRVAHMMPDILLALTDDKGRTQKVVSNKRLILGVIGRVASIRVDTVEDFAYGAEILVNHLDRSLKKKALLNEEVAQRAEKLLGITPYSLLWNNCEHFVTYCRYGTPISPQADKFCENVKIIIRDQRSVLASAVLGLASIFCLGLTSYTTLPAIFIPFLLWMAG

ARAT = test: Assay for ARAT activity, bovine RPE microsomes (to identify B1); assay type: biochemical; settings: compound 100 jm
[3] = in the presence of 10^-7M retinol
[4] = compound tested individually in the presence of 10^-7 M retinol
[5] = Tgase inhibition, compound tested individually in the presence of 10^-7 M retinol, read-out: IC50

% Inhibition Retinoic Acid (10 μM) [2]: 76%
Molecule: Clc1ccccc1C(c1ccccc1)(c1ccccc1)n1ccnc1 [Clotrimazole, reference compound]
TG as % C, Compd 3 [1, 3]: 79 % C

% Inhibition LRAT (10 jm) (LRAT): 52% | % Inhibition LRAT (100 jm) (LRAT): 92%
Molecule: C/C=C/C(=O)C1=C(C)CCCC1(C)C [Beta-Damascone]

% Inhibition LRAT (10 jm) (LRAT): 11% +/− 9 | % Inhibition LRAT (100 jm) (LRAT): 51% +/− 15 | % Inhibition Overall TG (—ROH/RE) ([1]; % (booster+retinol inhibition/control inhibition) − % (ROH inhibition/control inhibition)): 59%
Molecule: CCCCC/C=C\C/C=C\CCCCCCCC(=O)N(CCO)CCO [Linoleoyl Diethanolamide]

% Inhibition LRAT (100 jm) (LRAT): 77%
Molecule: Alpha-Methyl Ionone
% Inhibition ARAT (100 jm) (ARAT): 67%

% Inhibition LRAT (100 jm) (LRAT): 12%
Molecule: Santalone
% Inhibition ARAT (100 jm) (ARAT): 23%

% Inhibition Retinal Reductase (Retinal Reductase): 62% +/− 2
Molecule: CCCCC/C=C\C/C=C\CCCCCCCC(=O)O [Linoleic Acid]
TG as % C, Compd 3 [1, 3]: 11 % C | IC20 [1, 4]: 89.5 µM

% Inhibition LRAT (100 jm) (LRAT): 33%
Molecule: CCCC(O)CCC1C(C)CCCC1(C)C (stereo not drawn) [Timberol]

% Inhibition LRAT (100 jm) (LRAT): 92%
Molecule: CC=CC(=O)C1CCC(C)(C)C=C1C (stereo not drawn) [Isodamascone]
% Inhibition ARAT (100 jm) (ARAT): 80%

Second part, the molecule before the results:

Molecule: CC1(C)[C@@H](OC(=O)CCC(=O)O)CC[C@]2(C)[C@H]3C(=O)C=C4[C@@H]5C[C@@](C)(C(=O)O)CC[C@]5(C)CC[C@@]4(C)[C@]3(C)CC[C@@H]12 [Carbenoxolone, reference compound]
TG as % C, Compd 3 [1, 3]: 88 % C | IC20 [1, 4]: 0.2 µM | TG as % C Compd 2 ([1]; compound 2 alone, with retinol): 164 % C | % Inhibition Retinal Reductase (Retinal Reductase): 26% +/− 2

Molecule: CCCCCCCCCCCCCCCCCCCC(=O)O [Arachidic Acid]
% Inhibition Retinal Reductase (Retinal Reductase): 20%

Molecule: CC(C)(C(=O)c1cccnc1)c1cccnc1 [2-Methyl-1,2-di-3-Pyridyl-1-Propane]
% Inhibition Retinoic Acid (100 μM) [2]: 47%

Molecule: CCCCCCCCCCCCCC(=O)O [Myristic Acid]
TG as % C Compd 1 ([1]; Compound 1 alone, in the presence of 10^-7M retinol): 79 % C | IC20 [1, 4]: 10.5 µM | TG as % C Compd 1 ([1]; compound 1 alone, with retinol): 110 % C | % Inhibition Retinal Reductase (Retinal Reductase): 26%

Molecule: C/C=C\C(=O)C1C(C)=CCCC1(C)C (stereo not drawn) [Alpha-Damascone]
% Inhibition LRAT (10 jm) (LRAT): 87% +/− 6 | % Inhibition LRAT (100 jm) (LRAT): 98% +/− 1 | IC50 ([1]; B1 table, booster concentration which with 10^−7 M retinol inhibits TGase by 50%, same values in the 19th table (Molar), read-out: Overall TG (IC 50)): 335 µM | IC20 [1, 4]: 169 µM | IC50 [1, 5]: 335 µM | TG as % C Compd 1 ([1]; compound 1 alone, with retinol, listed as Alpha-demascone): 95 % C and 112 % C

Molecule: CC(=O)/C=C/C=C(\C)CCC=C(C)C [Pseudoionone]
% Inhibition LRAT (100 jm) (LRAT): 37%

Molecule: Clc1ccc(COC(Cn2ccnc2)c2ccc(Cl)cc2Cl)c(Cl)c1 (stereo not drawn) [Miconazole, reference compound]
TG as % C Compd 2 ([1]; Compound 2 alone, in the presence of 10^-7M retinol): 92 % C | TG as % C, Compd 3 [1, 3]: 82 % C | IC20 [1, 4]: 0.0842 µM | % Inhibition Retinoic Acid (10 μM) [2]: 74% | % Inhibition Retinoic Acid (100 μM) [2]: 86%

Molecule: CCCCCCCC/C=C\CCCCCCCC1=NCCN1CCO [Oleyl Hydroxyethylimidazoline]
IC50 ([1]; B5 table, with 10^−7 M retinol, read-out: Overall TG (IC 50)): 30.2 µM | TG as % C, Compd 3 [1, 3]: 76 % C | IC20 [1, 4]: 5.65 µM | IC50 [1, 5]: 30.2 µM | TG as % C Compd 2 ([1]; compound 2 alone, with retinol, listed as Oleoyl hydorxyethylimdazoline): 92 % C | TG as % C Compd 2 ([1]; compound 2 alone, with retinol, listed as Oleoyl hydroxyethylimiazoline): 73 % C | % Inhibition Retinoic Acid (10 μM) [2]: 54% | % Inhibition Retinoic Acid (100 μM) [2]: 80%

Molecule: CC(=O)CCC1C(C)=CCCC1(C)C (stereo not drawn) [Dihydro Alpha-Ionone]
% Inhibition LRAT (100 jm) (LRAT): 18% | % Inhibition ARAT (100 jm) (ARAT): 13%

Molecule: c1ccc(-c2ccc(C(c3ccccc3)n3ccnc3)cc2)cc1 (stereo not drawn) [Bifonazole]
% Inhibition Retinoic Acid (10 μM) [2]: 89% | % Inhibition Retinoic Acid (100 μM) [2]: 100%
